Experimental findings from BindingDB's records for doi:10.1016/j.ejmech.2018.06.052 (Cnrs/University of Strasbourg, 2018) are described below.

This experiment is described as follows: Induction of PHB2-mediated melanogenesis in mouse Melan-a cells assessed as pigmentation after 72 hrs.

For `NCCOCCOCCNc1nc(NCc2cccc(F)c2)nc(Oc2c(F)c(F)c(F)c(F)c2F)n1`, the half-maximal effective concentration (EC50) is 2500 nM.

The term EC50 denotes the concentration giving half of the maximal effect.
